# Experimental data reported in US20070292967A1, “Assay for Ligands of the Ecdysone Receptor” (COMMONWEALTH SCIENTIFIC AND INDUSTRIAL RESEARCH OR, priority 2003, published 2007).
# “And” between values parts separate entries of the source, which are not always exact repeats. Identical values can stand only once.
# Experiments:
# [1] = tested on: HaLBD; assay: FP titration of MB4628 with HaLBD; assay type: binding, Helicoverpa armigera; details: 36 nM MB4628, no CHAPS
# Protocol: (§1) The standard FP assay buffer was 50 mM sodium phosphate, 100 mM NaCl, pH 7.4, containing 0.5 mg/ml bovine serum albumin. When required, preparative pipetting steps (such as dilution series) were typically done in conventional V-bottomed 96-well microplates (e.g. V-bottomed polypropylene, Greiner Bio-One, Cat. No. 651201). The assays themselves were set up in opaque black flat-bottomed 96-well plates designed for fluorescence measurements (e.g. Nunc, Cat. No. 237108). The final volume of all assays was 250 μl. The FP plate-reader was a POLARstar Optima (Cat. No. 413-201, BMG Labtechnologies, Offenburg, Germany) with fluorescence polarization optics (installed according to the manufacturer's instructions) and operated by FLUOstar Optima software in Plate Mode (Polarization). Excitation was done at 485 nm (filter 485) and emission was detected at 520 nm (filter 520p). The standard instrument setup involved a 3 sec/3 mm shake for the plate prior to commencing reading; readings used 200 flashes/assay. […]
# (§2) A 250 μl sample of 30 nM fluorescein in 50 mM sodium phosphate, 100 mM NaCl, pH 7.4, was known to have a polarization value of 35 mP and was used to calibrate the FP plate-reader. […] Thereafter, at the commencement of each experimental session, the FP plate-reader was adjusted to give a reading of 100 mP for a 250 μl sample of 36 nM MB4628 in standard FP assay buffer. […]
# [2] = molecular target: T1, MpLBD (Myzus persicae, UniProt A3EZJ9); assay: FP titration of MB4628 with MpLBD; assay type: binding
# T1 sequence (A3EZJ9 70-308): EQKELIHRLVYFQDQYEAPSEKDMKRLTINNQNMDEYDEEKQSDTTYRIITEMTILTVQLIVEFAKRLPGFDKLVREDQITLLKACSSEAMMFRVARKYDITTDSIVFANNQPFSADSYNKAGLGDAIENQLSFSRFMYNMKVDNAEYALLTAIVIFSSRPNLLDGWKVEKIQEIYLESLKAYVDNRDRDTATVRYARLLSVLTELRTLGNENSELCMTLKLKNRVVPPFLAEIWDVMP
# T1 sequence (A3EZK0 32-259 partner): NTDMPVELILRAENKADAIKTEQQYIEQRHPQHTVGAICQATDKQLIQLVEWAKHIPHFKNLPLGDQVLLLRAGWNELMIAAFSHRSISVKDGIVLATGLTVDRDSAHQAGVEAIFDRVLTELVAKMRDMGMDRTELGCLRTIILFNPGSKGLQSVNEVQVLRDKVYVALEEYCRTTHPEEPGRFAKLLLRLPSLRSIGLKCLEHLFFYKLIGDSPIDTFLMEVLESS
# Protocol: (§3) The standard FP assay buffer was 50 mM sodium phosphate, 100 mM NaCl, pH 7.4, containing 0.5 mg/ml bovine serum albumin. When required, preparative pipetting steps (such as dilution series) were typically done in conventional V-bottomed 96-well microplates (e.g. V-bottomed polypropylene, Greiner Bio-One, Cat. No. 651201). The assays themselves were set up in opaque black flat-bottomed 96-well plates designed for fluorescence measurements (e.g. Nunc, Cat. No. 237108). The final volume of all assays was 250 μl. The FP plate-reader was a POLARstar Optima (Cat. No. 413-201, BMG Labtechnologies, Offenburg, Germany) with fluorescence polarization optics (installed according to the manufacturer's instructions) and operated by FLUOstar Optima software in Plate Mode (Polarization). Excitation was done at 485 nm (filter 485) and emission was detected at 520 nm (filter 520p). The standard instrument setup involved a 3 sec/3 mm shake for the plate prior to commencing reading; readings used 200 flashes/assay. Gain values were typically around 3000 for each channel, with a K-factor close or equal to 1.0.
# (§4) A 250 μl sample of 30 nM fluorescein in 50 mM sodium phosphate, 100 mM NaCl, pH 7.4, was known to have a polarization value of 35 mP and was used to calibrate the FP plate-reader.
# Receptor LBD titrations involved mixing a small volume (e.g. 2.5 μl) of diluted receptor LBD heterodimer stock with a larger volume (e.g. 247.5 μl) of standard FP assay buffer containing 36 nM MB4628. Where indicated, CHAPS was present at a final concentration of 2 mM. […] The assay mixtures were allowed to reach equilibrium, typically by incubating overnight at 4° C. and then equilibrating at room temperature (20° C.) for 2-4 h before reading the mP values. […]
# The inhibitor concentration at this midpoint was deemed to be the IC50 value for the inhibitor. […] The Kd values for use in this equation were calculated from the basic FP titration curves (FIG. 3) using the knowledge that the receptor concentration at the titration midpoint is the value at which the receptor is half-saturated with MB4628. […]
# [3] = molecular target: T2, BtLBD (Bemisia tabaci, UniProt A0A142K0N3); assay: FP titration of MB4628 with BtLBD; assay type: binding; details: for Kd: 36 nM MB4628
# Protocol: as §3, §4
# Receptor LBD titrations involved mixing a small volume (e.g. 2.5 μl) of diluted receptor LBD heterodimer stock with a larger volume (e.g. 247.5 μl) of standard FP assay buffer containing 36 nM MB4628. Where indicated, CHAPS was present at a final concentration of 2 mM. Receptor dilutions were typically arranged to cover a wide concentration range, e.g. 0.005-50 nM functional receptor. The assay mixtures were allowed to reach equilibrium, typically by incubating overnight at 4° C. and then equilibrating at room temperature (20° C.) for 2-4 h before reading the mP values. When plotting the data, smooth curves were drawn for the FP titrations using a Flexicurve; these represent a more realistic fit to the data than the linear point-to-point plots shown (for convenience of printing) in FIG. 3.
# (§5) The inhibitor concentration at this midpoint was deemed to be the IC50 value for the inhibitor. IC50 values were converted to Ki values using the Cheng-Prusoff equation (Cheng & Prusoff, 1973), as follows: Ki=IC50/(1+([MB4628]tot/Kd)) where [MB-4628]tot is the total concentration of MB4628 in the assay, and Kd is the dissociation constant for MB4628 with the relevant receptor under the conditions of the assay. The Kd values for use in this equation were calculated from the basic FP titration curves (FIG. 3) using the knowledge that the receptor concentration at the titration midpoint is the value at which the receptor is half-saturated with MB4628. The Kd is the free MB4628 concentration at this point, and must therefore be: Kd=[MB4628]tot−([receptor]midpoint)/2
# The effect of omitting CHAPS from BtLBD competitive inhibition assays was tested directly. Thus, in a BtLBD experiment that departed from standard procedure, 10 nM functional BtLBD was incubated with 36 nM MB4628 and increasing concentrations of non-fluorescent ecdysteroids, but without CHAPS.
# [4] = tested on: LcLBD; assay: FP titration of MB4628 with LcLBD; assay type: binding, Lucilia cuprina; details: 36 nM MB4628, no CHAPS
# Protocol: as §1, §2
# [5] = molecular target: MpLBD, recombinant M. persicae ecdysone receptor (Myzus persicae, UniProt A3EZJ9); assay: manual radioligand-based competitive inhibition assay ([3H]ponasterone A), MpLBD; assay type: binding
# Protocol: The ability of inokosterone and fluorescent conjugates thereof to bind to recombinant M. persicae ecdysone receptor was assessed using the conventional radioligand binding assay in a competetive inhibition format (adapted from Koelle et al., 1991).
# These procedures were performed manually, as follows. Assays were performed in EcR40 buffer [25 mM Hepes, 40 mM KCl, 10% glycerol, 1 mM sodium EDTA, 3 mM sodium azide] containing 0.5 mg/ml bovine serum albumin (BSA). An extract containing recombinant M. persicae edcdysone receptor, MpLBD, was prepared as described above and diluted in EcR40 buffer containing 0.5 mg/ml BSA to a concentration that generated filter counts around 10 000 cpm when the assay was done in the absence of competing ligands. […] Assays were set up to contain different final concentrations of fluorescent ecdysteroid by including the appropriate volumes of the relevant stock solutions. […] Each incubation was performed in a final volume of […] at room temperature (22° C.) for 90 min, whereupon it was held on ice until the filter adsorption/wash steps could be performed. Three 140 μl aliquots from each completed incubation were applied to glass microfibre filters (GF/C 24 mm diameter, Whatman, Cat. No. 1822024); i.e., every incubation generated three filters, each of which had been wet using 140 μl of the incubation mixture. After exposure to the liquid for 30 sec at room temperature, the wet filter was transferred to a vacuum sinter apparatus (Pyrex Filter Holder, Millipore Corp., Cat. No. XX1002500) and washed rapidly. Washing was done using 2×5 ml of ice-cold EcR40 buffer, intersperced with 3×0.5 ml buffer applied around the circumference of the filter to ensure that its edges were thoroughly rinsed. The damp filter was then transferred to a scintillation vial. When all the filters had been thus processed, 7 ml Packard InstaGel Plus scintillant was added to each scintillation vial. The sealed vials were vortexed and then incubated at room temperature for at least 2 h, during which time the filters became transparent. The vials were then scintillation counted (1 min per filter, tritium program, Packard TriCarb 2100TR scintillation counter). Datapoints were reported as the mean cpm value ±SEM for the three replicate filters arising from each incubation.
# The inhibitor concentration at this midpoint was deemed to be the IC50 value for the inhibitor.
# [6] = molecular target: T1, MpLBD; assay: miniaturized automated radioligand-based competition assay, MpLBD; assay type: binding; details: 1.3 nM [3H]ponasterone A, no CHAPS, read-out: Ki from radioligand-based MpLBD assay
# Protocol: (§6) Subsequently, a miniaturized and automated version of the radioligand-based competition assay was used with MpLBD and BtLBD to obtain Ki values for the non-radioactive, non-fluorescent ecdysteroids that would later be used to validate the competitive inhibition format of the FP assay. While the concept of the assay was unchanged from that described above, some aspects of its execution were different. […] The mixtures were again allowed to reach equilibrium, but this time for 4 h at room temperature. The MpLBD was then captured on a 96-filter array (Unifilter-96 GF/C, Packard, Cat. No. 6005174) and rinsed using the wash tool and vacuum block of the Biomek 2000. The back of each filter-plate was then manually sealed using a sheet of Packard BackSeal, and 25 μl Packard MicroScint-20 scintillation fluid was dispensed into each well. The top of each plate was sealed with Packard TopSeal-A and the filters were allowed to solvate overnight. […] Since the amount of bound radioactivity was at most 28% of the total present, no additional corrections for ligand depletion were applied.
# [7] = molecular target: T1, MpLBD; assay: FP competitive inhibition assay with MB4628 tracer, MpLBD; assay type: binding; details: 5 nM functional MpLBD, 36 nM MB4628, no CHAPS, Cheng-Prusoff; read-out: FP-derived Ki, MpLBD
# Protocol: (§7) For competitive inhibition assays, each well contained standard FP assay buffer containing 36 nM MB4628 and either 5 nM functional MpLBD or 6 nM functional BtLBD. The BtLBD assays, but not the MpLBD ones, were routinely done in the presence of 2 mM CHAPS. The final volume of all assays were 250 μl.
# as §5
# [8] = molecular target: T2, BtLBD; assay: miniaturized automated radioligand-based competition assay, BtLBD; assay type: binding; details: 1.3 nM [3H]ponasterone A, no CHAPS, read-out: Ki from radioligand-based BtLBD assay
# Protocol: as §6
# [9] = molecular target: T2, BtLBD; assay: FP competitive inhibition assay with MB4628 tracer, BtLBD; assay type: binding; details: 6 nM functional BtLBD, 36 nM MB4628, 2 mM CHAPS, Cheng-Prusoff; read-out: FP-derived Ki, BtLBD
# Protocol: as §7, §5
compound,measurement,setting,value
CC(CCC(O)C(C)(O)C1CCC2(O)C3=CC(=O)C4CC(O)C(O)CC4(C)C3CCC12C)COC(=S)Nc1ccc2c(c1)C(=O)OC21c2ccc(O)cc2Oc2cc(O)ccc21 (stereo not drawn) [MB4628],"FP titration curve midpoint, HaLBD",[1],3.5 nM functional receptor
same,"mPmax, HaLBD",[1],230 mP
same,"FP titration curve midpoint, MpLBD","[2]; 36 nM MB4628, no CHAPS",1.1-1.8 nM functional receptor
same,"maximum mP value (mPmax), MpLBD","[2]; 36 nM MB4628, no CHAPS",335 mP
same,Kd,"[2]; without CHAPS, 36 nM MB4628, read-out: Kd for MB4628 from FP titration curve, MpLBD",35.3 nM
same,"FP titration midpoint, BtLBD, 2 mM CHAPS","[3]; 36 nM MB4628, 2 mM CHAPS, FIG. 3B experiment",1.5 nM functional BtLBD
same,"FP titration midpoint, BtLBD, CHAPS-free","[3]; 36 nM MB4628, CHAPS-free, FIG. 3B experiment",4.5 nM
same,"mPmax, BtLBD","[3]; 36 nM MB4628, no CHAPS",210-260 mP
same,"FP titration curve midpoint, BtLBD","[3]; 36 nM MB4628, no CHAPS (FIG. 3A)",1 to 5 nM functional receptor
same,Kd,"[3]; Kd for MB4628, BtLBD without CHAPS, without CHAPS",34.7 nM
same,Kd,"[3]; Kd for MB4628 from FP titration curve, BtLBD, with 2 mM CHAPS",35.3 nM
same,"FP titration curve midpoint, LcLBD",[4],2.5 nM functional receptor
same,"mPmax, LcLBD",[4],220 mP
same,Ki,[5],40 nM
same,ability to compete with [3H]ponasterone A / bind to MpLBD (in words),[5]; radioligand-based assay,unimpaired
CC(CO)CC[C@@H](O)[C@](C)(O)[C@H]1CC[C@@]2(O)C3=CC(=O)[C@@H]4C[C@@H](O)[C@@H](O)C[C@]4(C)[C@H]3CC[C@]12C (stereo partly drawn) [inokosterone],Ki,[5],65 nM
CC(C)CC[C@@H](O)[C@](C)(O)[C@H]1CC[C@@]2(O)C3=CC(=O)[C@]4(O)C[C@@H](O)[C@@H](O)C[C@]4(C)[C@H]3[C@H](O)C[C@]12C [muristerone A],Ki,[6],30 nM
same,Ki,[7],149 nM
same,Ki,[8],5.3 nM
same,Ki,[9],27 nM
CC(C)CC[C@@H](O)[C@](C)(O)[C@H]1CC[C@@]2(O)C3=CC(=O)[C@@H]4C[C@@H](O)[C@@H](O)C[C@]4(C)[C@H]3CC[C@]12C [ponasterone A],Ki,[6],0.28 nM and ~0.3 nM
same,Ki,[7],1 nM
same,Ki,[8],4.8 nM
same,Ki,[9],7.4 nM
